This is an account of results in US11459315B2, “Modulators of methyl modifying enzymes, compositions and uses thereof” (Constellation Pharmaceuticals, Inc., priority 2017, dated 2022).

Read-outs that look alike come from different tables or passages of the source.

The target of one experiment is PRC2 containing wt EZH2 (Homo sapiens (Human), UniProt Q15910). In words: EZH2 biochemical assay (IC50), 3H-SAM incorporation into biotinylated H3 peptide. The following applies: 30 pM PRC2 containing wt EZH2, 3-5 h pre-incubation. The protocol:
EZH2 biochemical assay (IC50): Compound potencies were assessed through incorporation of ^3H-SAM into a biotinylated H3 peptide. Specifically, 30 pM PRC2 containing wt EZH2 (pentameric complex prepared in-house) was pre-incubated with 450 nM SAM, 450 nM ^3H-SAM, 2 μM H3K27me3 activating peptide (H2N-[…](Kme3)[…]-amide) and compounds (as 10 point duplicate dose response titrations in DMSO, final assay 0.8% DMSO (v/v)) for 3-5 h in 50 mM Tris (pH 8.5), 1 mM DTT, 0.07 mM Brij-35, 0.1% BSA, and 0.8% DMSO in a total volume of 12.5 μl. Reaction was initiated with biotinylated H3 substrate peptide (H2N-[…](Kme1)[…]-NTPEGBiot) as a 2 μM stock in 12.5 μl of buffer and allowed to react at room temperature for 18-22 h. Quenching was accomplished by addition of 20 μl of STOP solution (50 mM Tris (pH 8.5), 200 mM EDTA, 2 mM SAH). 35 μl of the quenched solution was transferred to streptavidin coated FlashPlates (PerkinElmer), incubated 1-2 h, washed, and read in a TopCount Reader (PerkinElmer). IC50s were calculated in Genedata Screener using non-linear least square four parameter fits, where the four parameters were IC50, Hill slope, pre-transitional baseline (0% INH), and post-transitional baseline (100% INH).
IC50 values are reported as follows: “A” indicates an IC50 value of less than 0.5 nM; “B” indicates an IC50 value of 0.5 nM to 5 nM; “C” indicates an IC50 value of greater than 5 nM for each enzyme; and “ND” is not determined.

The test system of experiment [1] is H3K27me3 mark in HeLa cells (EZH2). In words: H3K27me3 Alpha Hela Assay (AlphaLISA). In kind it is cell-based. Here is the method:
H3K27me3 Alpha Hela Assay (AlphaLISA). Ten different doses of each test compound (in a series of 3-fold dilutions) were plated in duplicate 384-well tissue culture treated plates (Catalog #6007680; Perkin Elmer, Waltham, Mass.). Hela cells grown in culture were trypsinized and counted using a Countess® cell counter (Catalog #C10281; Life Technologies, Grand Island, N.Y.). Cell were diluted to 67,000 cells per mL in 10% DMEM (Catalog #10569-010 Life Technologies, Grand Island, N.Y.) and 15 μL (1,000 cells) were plated into each well using the Biotek MicroFlo™ Select Dispenser (BioTek Instruments, Inc. Vermont, USA),) of the 384-well plate. Plates were incubated at 37° C./5% CO2 for 72 hrs. One of the duplicate plates was processed for HeLa assay and the other for viability.
5 μL of Cell-Histone Lysis buffer (1×) (Catalog #AL009F1 Perkin Elmer; Waltham, Mass.) per well was added to the plate processed for AlphaLISA and the plate was incubated at RT for 30 minutes on a plate shaker with low speed (Model #4625-Q Thermo Scientific; Waltham, Mass.). Then, 10 μL per well Histone Extraction buffer (catalog #AL009F2; Perkin Elmer; Waltham, Mass.) was added and the plate further incubated at RT for 20 min on plate shaker with low speed. Next, 10 μL of 5× mix of anti-K27me3 acceptor beads plus Biotinylated anti-Histone H3 (C-ter) Antibody (diluted to 3 nM final) (Catalog #AL118 Perkin Elmer; Waltham, Mass.) was added in each well. Dilution of the acceptor beads and anti-Histone H3 was done in 1× Histone Detection buffer (Catalog #AL009F3 Perkin Elmer; Waltham, Mass.) which was produced by diluting the 10× stock provided. The plate was sealed with an aluminum plate sealer and incubated at 23° C. for 60 min. Next, 10 μL 5× solution of Streptavidin Donor beads were added (Catalog #6760002 Perkin Elmer; Waltham, Mass.) (20 μg/mL final in 1× Histone Detection Buffer), =plate was sealed with Aluminum plate sealer and incubated at 23° C. for 30 min. The plates were then read using an EnVision-Alpha Reader (model #2104 Perkin Elmer; Waltham, Mass.).
Data from both assays was analyzed using Genedata (Basel, Switzerland). Data files were imported to Genedata and assay conditions were specified. A unique Analysis ID was created and the data files analysed to measure dose-dependent inhibition of H3K27me3 mark and cell viability respectively. Readout of DMSO wells were used to normalize the data. Resulting curves were fitted using Smart fit application (Genedata; Basel, Switzerland). The data was checked for quality, validated and integrated in excel format using Stardrop (Optibruim, Cambridge, UK).
EC50 values are reported as follows: “A” indicates an EC50 value of less than 10 nM; “B” indicates an EC50 value of 10 nM to 100 nM; “C” indicates an EC50 value of greater than 100 nM; and “ND” is not determined.
A general note: Bead proximity is the source of the signal in Alpha formats.

Setting [2] is: Homo sapiens, HeLa, 72 h, HeLa cells, 72 hrs, read-out: EZH2 Cell H3K27me3 Alpha HeLa (EC50 K27me3).
Setting [3] is: HeLa cells, 72 hrs, read-out: EZH2 Cell H3K27me3 Alpha HeLa (EC50 K27me3).
Where [4] appears, read: HeLa cell assay, Table 3 classes, read-out: EC50 Cellular Activity.
Setting [5] is: Homo sapiens, HeLa, HeLa cell assay, Table 3 classes, read-out: EC50 Cellular Activity.

Chain of PRC2 containing wt EZH2 (Q15910 whole entry): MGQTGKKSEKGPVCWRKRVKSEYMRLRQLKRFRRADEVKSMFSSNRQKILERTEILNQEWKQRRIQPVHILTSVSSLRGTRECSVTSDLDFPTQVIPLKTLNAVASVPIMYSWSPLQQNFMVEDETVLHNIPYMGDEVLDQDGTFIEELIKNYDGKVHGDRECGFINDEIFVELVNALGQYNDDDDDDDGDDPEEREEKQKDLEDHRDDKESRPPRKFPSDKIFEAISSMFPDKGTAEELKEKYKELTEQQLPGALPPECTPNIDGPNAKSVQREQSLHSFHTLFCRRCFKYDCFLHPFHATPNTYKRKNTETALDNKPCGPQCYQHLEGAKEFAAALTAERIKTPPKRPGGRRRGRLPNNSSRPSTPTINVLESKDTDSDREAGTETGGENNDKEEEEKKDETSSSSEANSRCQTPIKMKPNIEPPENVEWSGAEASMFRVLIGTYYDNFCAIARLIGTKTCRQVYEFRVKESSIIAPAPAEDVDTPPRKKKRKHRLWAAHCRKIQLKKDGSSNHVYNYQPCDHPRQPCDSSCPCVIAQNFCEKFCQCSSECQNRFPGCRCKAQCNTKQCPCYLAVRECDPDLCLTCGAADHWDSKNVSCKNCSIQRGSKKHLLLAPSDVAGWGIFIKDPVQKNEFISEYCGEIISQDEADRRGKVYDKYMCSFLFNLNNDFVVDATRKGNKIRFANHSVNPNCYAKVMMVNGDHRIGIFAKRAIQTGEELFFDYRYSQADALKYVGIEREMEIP
Chain of PRC2 containing wt EZH2 (O75530 whole entry partner): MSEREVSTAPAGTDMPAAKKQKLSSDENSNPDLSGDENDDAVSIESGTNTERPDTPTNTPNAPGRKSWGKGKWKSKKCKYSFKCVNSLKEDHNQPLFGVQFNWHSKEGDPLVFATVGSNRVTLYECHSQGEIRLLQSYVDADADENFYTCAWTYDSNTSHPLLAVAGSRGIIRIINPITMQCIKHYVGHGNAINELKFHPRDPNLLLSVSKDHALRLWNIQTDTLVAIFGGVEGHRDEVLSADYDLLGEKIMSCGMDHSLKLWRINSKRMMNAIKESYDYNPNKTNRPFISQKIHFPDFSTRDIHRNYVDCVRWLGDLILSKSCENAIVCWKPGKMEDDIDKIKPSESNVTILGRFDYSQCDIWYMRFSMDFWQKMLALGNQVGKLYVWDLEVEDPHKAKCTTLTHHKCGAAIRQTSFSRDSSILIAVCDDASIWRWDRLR
Chain of PRC2 containing wt EZH2 (Q15022 whole entry partner): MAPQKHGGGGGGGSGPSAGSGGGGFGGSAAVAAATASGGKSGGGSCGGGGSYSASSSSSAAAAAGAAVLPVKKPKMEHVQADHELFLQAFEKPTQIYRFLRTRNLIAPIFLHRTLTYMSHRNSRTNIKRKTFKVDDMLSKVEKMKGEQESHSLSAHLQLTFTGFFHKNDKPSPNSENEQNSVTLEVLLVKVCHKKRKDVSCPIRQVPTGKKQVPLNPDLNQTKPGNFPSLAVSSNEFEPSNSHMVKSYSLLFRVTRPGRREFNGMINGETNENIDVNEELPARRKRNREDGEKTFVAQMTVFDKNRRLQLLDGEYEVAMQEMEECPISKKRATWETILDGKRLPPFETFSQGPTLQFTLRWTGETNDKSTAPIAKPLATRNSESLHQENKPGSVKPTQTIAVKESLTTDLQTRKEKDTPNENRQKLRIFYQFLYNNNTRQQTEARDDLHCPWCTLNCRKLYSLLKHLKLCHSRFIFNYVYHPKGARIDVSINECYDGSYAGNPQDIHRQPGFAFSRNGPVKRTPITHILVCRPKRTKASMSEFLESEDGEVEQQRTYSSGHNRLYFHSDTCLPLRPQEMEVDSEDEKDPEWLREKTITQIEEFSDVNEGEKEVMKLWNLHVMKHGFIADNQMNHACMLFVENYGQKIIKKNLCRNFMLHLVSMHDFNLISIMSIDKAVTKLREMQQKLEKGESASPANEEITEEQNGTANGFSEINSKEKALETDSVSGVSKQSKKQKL
Chain of PRC2 containing wt EZH2 (Q09028 whole entry partner): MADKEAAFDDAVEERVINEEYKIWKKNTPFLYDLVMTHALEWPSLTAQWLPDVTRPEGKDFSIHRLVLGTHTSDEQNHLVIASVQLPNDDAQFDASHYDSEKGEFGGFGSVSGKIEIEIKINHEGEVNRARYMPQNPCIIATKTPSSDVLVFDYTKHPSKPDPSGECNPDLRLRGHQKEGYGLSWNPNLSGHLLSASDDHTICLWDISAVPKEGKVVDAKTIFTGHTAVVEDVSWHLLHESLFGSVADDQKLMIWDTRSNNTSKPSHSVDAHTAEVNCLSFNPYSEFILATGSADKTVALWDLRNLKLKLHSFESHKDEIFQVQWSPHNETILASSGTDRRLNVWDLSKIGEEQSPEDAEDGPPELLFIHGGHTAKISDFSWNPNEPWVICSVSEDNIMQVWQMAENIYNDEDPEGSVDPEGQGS
Chain of PRC2 containing wt EZH2 (Q6ZN18 whole entry partner): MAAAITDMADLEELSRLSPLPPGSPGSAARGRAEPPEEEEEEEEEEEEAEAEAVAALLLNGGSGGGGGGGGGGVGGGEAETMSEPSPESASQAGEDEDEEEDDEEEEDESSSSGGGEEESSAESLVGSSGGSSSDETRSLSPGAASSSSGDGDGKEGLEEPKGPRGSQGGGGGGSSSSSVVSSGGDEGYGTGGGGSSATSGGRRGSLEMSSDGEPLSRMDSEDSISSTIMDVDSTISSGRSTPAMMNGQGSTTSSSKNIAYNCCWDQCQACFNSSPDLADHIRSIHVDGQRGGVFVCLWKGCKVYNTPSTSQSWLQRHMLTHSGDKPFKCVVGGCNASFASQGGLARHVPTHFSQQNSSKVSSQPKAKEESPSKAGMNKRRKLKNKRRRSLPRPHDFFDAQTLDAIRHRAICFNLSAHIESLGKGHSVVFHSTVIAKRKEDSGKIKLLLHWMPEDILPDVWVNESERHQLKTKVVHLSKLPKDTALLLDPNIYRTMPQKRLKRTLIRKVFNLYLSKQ

For `CSc1cc(C)[nH]c(=O)c1CNC(=O)c1c(C)n([C@H](C)C2CC(NC3COC3)C2)c2ccccc12` (stereo partly drawn) [Example 49, 2-methyl-N-((6-methyl-4-(methylthio)-2-oxo-1,2-dihydropyridin-3-yl)methyl)-1-((R)-1-(3-(oxetan-3-ylamino)cyclobutyl)ethyl)-1H-indole-3-carboxamide], the IC50 (commonly the point on the concentration scale where inhibition reaches its midpoint) at PRC2 containing wt EZH2 (read-out: EZH2 (IC50)) fell in the range of 0.0005 to 0.005 µM. Also, the EC50 (usually the concentration at which the effect is half-maximal) in experiment [1] (setting [2]) is greater than 0.1 µM.

`CSc1cc(C)[nH]c(=O)c1CNC(=O)c1c(C)n([C@H](C)C2CCC(O)CC2)c2nc(C)ccc12` (stereo partly drawn) [Example 40, 1-((1R)-1-(4-hydroxycyclohexyl)ethyl)-2,6-dimethyl-N-((6-methyl-4-(methylthio)-2-oxo-1,2-dihydropyridin-3-yl)methyl)-1H-pyrrolo[2,3-b]pyridine-3-carboxamide] registered an IC50 against PRC2 containing wt EZH2 (EZH2 (IC50)) of 0.0005 to 0.005 µM. Also, the EC50 in experiment [1] (setting [2]) is greater than 0.1 µM.

`CSc1cc(C)[nH]c(=O)c1CNC(=O)c1c(C)n([C@H](C)C2CCC(N3CC(OC(F)F)C3)CC2)c2c(F)cccc12` (single isomer, unassigned) [121 (isomer 2)]: the IC50 at PRC2 containing wt EZH2 (read-out: EZH2 (IC50)) was in the range of 0.0005 to 0.005 µM. The EC50 in experiment [1] (setting [3]) was greater than 0.1 µM.

At PRC2 containing wt EZH2 (EZH2 (IC50)), `CSc1cc(C)[nH]c(=O)c1CNC(=O)c1c(C)n([C@H](C)C2OCC(N3CCC3(C)C)CO2)c2ccccc12` (single isomer, unassigned) [15 (isomer 1)] had an IC50 of less than 0.0005 µM. In addition, the EC50 in experiment [1] (setting [3]) is less than 0.01 µM.

Turning to `CSc1cc(C)[nH]c(=O)c1CNC(=O)c1c(C)n([C@H](C)C2CCC(NC3(C)CCOC3)CC2)c2ccccc12` (single isomer, unassigned) [149 (isomer 2)], at PRC2 containing wt EZH2 (read-out: EZH2 (IC50)), the IC50 was less than 0.0005 µM. The EC50 in experiment [1] (setting [3]) fell in the range of 0.01 to 0.1 µM.

Regarding `COC1CN(C2CCC([C@@H](C)n3c(C)c(C(=O)NCc4c(SC)cc(C)[nH]c4=O)c4cccnc43)CC2)C1` (single isomer, unassigned) [drawing 260], in experiment [1] (setting [4]), the EC50 was greater than 0.125 µM.

`CSc1cc(C)[nH]c(=O)c1CNC(=O)c1c(C)n([C@H](C)C2CCN(CC(F)(F)F)CC2)c2cc(F)ccc12` [Example 92, (R)-6-fluoro-2-methyl-N-((6-methyl-4-(methylthio)-2-oxo-1,2-dihydropyridin-3-yl)methyl)-1-(1-(1-(2,2,2-trifluoroethyl)piperidin-4-yl)ethyl)-1H-indole-3-carboxamide] displayed a concentration for half-maximal inhibition (IC50) against PRC2 containing wt EZH2 (EZH2 (IC50)) of less than 0.0005 µM. For the same compound, in experiment [1] (setting [2]), the EC50 is less than 0.01 µM.

As for `CSc1cc(C)[nH]c(=O)c1CNC(=O)c1c(C)n([C@H](C)C2CCC(N3CC(OC(F)F)C3)CC2)c2ccccc12` (single isomer, unassigned) [drawing 253], the EC50 in experiment [1] (setting [4]) is 0.005 to 0.025 µM.

As for `Cc1cc(Cl)c(CNC(=O)c2c(C)n([C@H](C)C3OCC(NC(C)(C)C)CO3)c3ccccc23)c(=O)[nH]1` (single isomer, unassigned) [drawing 222], the EC50 in experiment [1] (setting [4]) lay within 0.005 to 0.025 µM.

With `Cc1cc(C)c(CNC(=O)c2c(C)n([C@H](C)C3CCOCC3)c3ccccc23)c(=O)[nH]1`, the EC50 in experiment [1] (setting [5]) was in the range of 0.025 to 0.125 µM.

Consider `COC1CCC([C@@H](C)n2c(C)c(C(=O)NCc3c(SC)cc(C)[nH]c3=O)c3ccccc32)CC1` (single isomer, unassigned) [drawing 249], for which, in experiment [1] (setting [5]), the EC50 was less than 0.005 µM.

`COc1cc(C)[nH]c(=O)c1CNC(=O)c1c(C)n([C@H](C)C2CCOCC2)c2ccccc12`: the EC50 in experiment [1] (setting [5]) is 0.025 to 0.125 µM.

In the case of `COc1cnc2c(c1)c(C(=O)NCc1c(SC)cc(C)[nH]c1=O)c(C)n2[C@H](C)C1CCC(N2CC(OC(F)F)C2)CC1` (single isomer, unassigned) [125 (isomer 2)], the IC50 at PRC2 containing wt EZH2 (read-out: EZH2 (IC50)) was less than 0.0005 µM.

`CCOC1CN(C2CCC([C@@H](C)n3c(C)c(C(=O)NCc4c(SC)cc(C)[nH]c4=O)c4cccnc43)CC2)C1` (single isomer, unassigned) [drawing 262]: the EC50 in experiment [1] (setting [4]) is 0.025 to 0.125 µM.

On to `CSc1cc(C)[nH]c(=O)c1CNC(=O)c1c(C)n([C@H](C)C2CCC(NC3(C)CCOC3)CC2)c2ccccc12` (single isomer, unassigned) [drawing 270], for which, in experiment [1] (setting [4]), the EC50 was in the range of 0.025 to 0.125 µM.
